Data on 20 compounds can be found in patent publication US11040952B2, “Phthalazinone compound, method for preparation thereof, pharmaceutical composition thereof, and use thereof” (SHANGHAI INSTITUTE OF MATERIA MEDICA, CHINESE ACADEMY OF …, priority 2017, dated 2021).

System in the first data set: not listed separately
Kind of data set: MTT assay for cytotoxicity. Format: cell-based, Human. The conditions noted are these: human, HepG2.2.15 cells, half (50%) lethal concentration. The procedure: (§1) Human hepatoblastoma cell line HepG2.2.15 stably transfected with full-length HBV (provided by Shanghai Institute of Materia Medica, Chinese Academy of Sciences)
(§2) HepG2.2.15 cells were cultured and passaged according to conventional methods. DMEM containing 10% (v/v) bovine serum and the selective antibiotic G418 was used as a medium, the cells were cultured in an incubator at 37° C. under 5% CO2 for 8 days (the medium was exchanged on the 4th day).
(§3) The test compounds were formulated with DMSO into a 40 mM stock solution, which was then prepared into a solution at the defined highest concentration using a DMEM medium containing 10% Hyclone™ Fetal Bovine Serum, followed by diluting the same; the positive drug was lamivudine, which was also prepared into a solution at the defined concentration with the DMEM medium containing 10% Hyclone™ Fetal Bovine Serum.
HepG2.2.15 cells were seeded at 5×10^3 cells/well in a 96-well plate, and cultured for eight days in the presence of the compounds according to the above method, and then 200 μl of the supernatant was taken out, followed by addition of the MTT solution. After 4 hours of culture, a lysate was added. After 12 hours of culture, the OD570 was measured on a microplate reader. By comparing with the absorbance of the control well, the percentage of viable cells was calculated, and CC50, the concentration required for the reduction of cell viability by 50%, was calculated.
(Formazan colour is commonly taken as a measure of viable cells.)
Usually CC50 stands for the concentration at which the toxic effect on the cells reaches its halfway point. A high value points to lower toxicity to the cells. Compound `CCOC(=O)CNc1ccc(-c2nn(Cc3ccc(C#N)cc3)c(=O)c3ccccc23)c(F)n1` [IV-34] returned a cytotoxic concentration (CC50) at 8 days of more than 100 µM.

In the case of `CC(C)(C)OC(=O)CCCNc1nc(F)c(-c2nn(Cc3ccc(C#N)cc3)c(=O)c3ccccc23)cc1Cl` [IV-51], the CC50 at 8 days was 89.9 µM.

In the case of `[2H]C([2H])(OC)c1ccc(-c2nn(Cc3ccc(Cl)cc3)c(=O)c3ccccc23)c(F)n1` [Compound I-35], the cytotoxic concentration (CC50) at 8 days was more than 100 µM.

With `N#Cc1ccc(Cn2nc(-c3ccc(NCCCO)nc3F)c3ccccc3c2=O)cc1` [IV-66], the CC50 at 8 days is 94 µM.

In turn, `CN(C)CCNc1ccc(-c2nn(Cc3ccc(Cl)cc3)c(=O)c3ccccc23)c(F)n1` [Compound I-21] registered a CC50 at 8 days of more than 100 µM.

Consider `N#Cc1ccc(Cn2nc(-c3cc(Cl)c(NCCC(=O)O)nc3F)c3ccccc3c2=O)cc1` [IV-63], for which the CC50 at 8 days was more than 100 µM.

`N#Cc1ccc(Cn2nc(-c3cc(Cl)cnc3F)c3ccccc3c2=O)c(Cl)c1` [Compound I-41] displayed a half-maximal cytotoxic concentration (CC50) at 8 days of 46.6 µM.

With `N#Cc1ccc(Cn2nc(-c3cc(Cl)cnc3F)c3ccccc3c2=O)c(F)c1` [Compound I-42], it took 33.5 µM to reach half-maximal cytotoxicity (CC50 at 8 days).

The compound `CC(C)(C)OC(=O)CCNc1ccc(-c2nn(Cc3ccc(C#N)cc3)c(=O)c3ccccc23)c(F)n1` [IV-61] yielded a CC50 at 8 days of 195 µM.

`CCOC(=O)CCCNc1nc(F)c(-c2nn(Cc3ccc(C#N)cc3)c(=O)c3ccccc23)cc1Cl` [IV-36] yielded a CC50 at 8 days of more than 100 µM.

`COCCNc1ccc(-c2nn(Cc3ccc(C#N)cc3)c(=O)c3ccccc23)c(F)n1` [IV-26] returned a half-maximal cytotoxic concentration (CC50) at 8 days of more than 100 µM.

In the case of `CS(=O)(=O)CCNc1nc(F)c(-c2nn(Cc3ccc(C#N)cc3)c(=O)c3ccccc23)cc1Cl` [IV-75], the CC50 at 8 days is more than 100 µM.

Consider `Cc1ncccc1-c1nn(Cc2ccc(C#N)cc2)c(=O)c2ccccc12` [IV-3], for which the 50% cytotoxic concentration (CC50) at 8 days is more than 100 µM.

Compound `CC1(C)OCC(CNc2ccc(-c3nn(Cc4ccc(C#N)cc4)c(=O)c4ccccc34)c(F)n2)O1` (stereo not shown) [IV-78] displayed a CC50 at 8 days of more than 100 µM.

Regarding `CN(C)Cc1ccc(-c2nn(Cc3ccc(Cl)cc3)c(=O)c3ccccc23)c(F)n1` [Compound I-33], the CC50 at 8 days is more than 100 µM.

On to `COCCOCCOCCNc1ccc(-c2nn(Cc3ccc(C#N)cc3)c(=O)c3ccccc23)c(F)n1` [IV-49], for which the CC50 at 8 days turned out to be 93.6 µM. That is a double-digit micromolar value.

In turn, `N#Cc1ccc(Cn2nc(-c3ccc(NC4CC4)nc3F)c3ccccc3c2=O)cc1` [IV-13] registered a CC50 at 8 days of 78.5 µM.

Consider `O=c1c2ccccc2c(-c2ccc(N3CCC3)nc2F)nn1Cc1ccc(Cl)cc1` [Compound I-18], for which the CC50 at 8 days came out at 42.9 µM.

For the compound `N#Cc1ccc(Cn2nc(-c3cc(Cl)c(NCCO)nc3F)c3ccccc3c2=O)cc1` [IV-77], the 50% cytotoxic concentration (CC50) at 8 days amounted to 32.1 µM.

On to `CN(C)Cc1ccc(-c2nn(Cc3ccc(C#N)cc3)c(=O)c3ccccc23)c(F)n1` [IV-21], for which the 50% cytotoxic concentration (CC50) at 8 days was more than 100 µM.

For the next data set, the system named is HBV. Kind of data set: HBV DNA content in the supernatant of cell culture (real-time PCR). Format: cell-based, hepatitis B virus (HBV). The conditions noted are these: Hepatitis B virus, HepG2.2.15, 192 h, inhibition of HBV DNA replication, HepG2.2.15 supernatant, 8 days. The method, then: as §1, §2, §3
HepG2.2.15 cells were treated with compounds at different concentrations for 8 days (the medium was exchanged on the 4th day), and the supernatant was aspirated, and the HBV DNA contained in the mature virus particles in the supernatant was quantitated by using a real-time PCR method.
1) The supernatant DNA from a 96-well plate, 200 μl/well, was collected, wherein the contents in the duplicate wells were collected into a same EP tube, and centrifuged at 4000 rcf for 5 min, and the supernatant was collected;
2) 200 μl of the supernatant was added into a 1.5 ml EP tube, added with 20 μl of proteinase K and 200 μl of Buffer AL (Qiagen, DNeasy® Blood & Tissue Kit), vortexed to be mixed thoroughly, and incubated at 56° C. for 10 min;
3) 200 μl of ethanol was added and vortexed to be mixed thoroughly;
4) all the liquid obtained from step 3) was added into a DNeasy Mini spin column (Qiagen, DNeasy® Blood & Tissue Kit) placed in a 2 ml waste liquid collection tube, and centrifuged at 6000 rcf for 1 min, and the supernatant was discarded;
5) the DNeasy Mini spin column was placed in a new 2 ml waste liquid collection tube, added with 500 μl of Buffer AW1 (Qiagen, DNeasy® Blood & Tissue Kit), and centrifuged at 6000 rcf for 1 min, and the supernatant was discarded;
6) the DNeasy Mini spin column was placed in a new 2 ml waste liquid collection tube, added with 500 μl of Buffer AW2, (Qiagen, DNeasy® Blood & Tissue Kit), and centrifuged at 20000 rcf for 3 min, and the supernatant was discarded;
7) the DNeasy Mini spin column was placed in anew 1.5 ml EP tube, 50 μl of Buffer AE (Qiagen, DNeasy® Blood & Tissue Kit) was pipetted and directly applied onto the membrane of the DNeasy Mini spin column, which was then left at room temperature for 5 min, and centrifuged at 6000 rcf for 1 min to elute the DNA from the membrane, the DNeasy Mini spin column was discarded, and the DNA sample was collected and stored at −20° C.
1) Standard curve: 1e^7-1e^4 IU/ml, the sample amount was 1 μl, a blank well was set so as to check whether the reaction system is polluted or not;
2) 1 μl of a DNA sample was added in sequence;
3) Addition of enzyme and reaction buffer: two tubes of the reaction solution were first added into the enzyme, mixed well and centrifuged slightly, placed on ice, added with the sample, followed by addition of 19 μl of the enzyme reaction solution, wherein, during the addition, the DNA sample should be sure of not being touched to cause contamination;
4) the sample was sealed with a sealing film and centrifuged;
Stage 2: 10 cycles • Step 1: 93° C., 45 s • Step 2: 55° C., 1 min Stage 3: 45 cycles • Step 1: 93° C., 30 s • Step 2: 55° C., 45 s
Detection: data were collected after completing the step 2 (55° C., 45 s) of the stage 3.
The experimental data were processed by using the Origin software and IC50 was calculated.
In general terms: Real-time PCR tracks product formation cycle by cycle.
One may read the IC50 as the midpoint of a concentration-inhibition curve. A low value points to inhibition by little substance. Take `CCOC(=O)CNc1ccc(-c2nn(Cc3ccc(C#N)cc3)c(=O)c3ccccc23)c(F)n1` [IV-34]: half-maximal inhibition (IC50) was put at 15.7 µM.

On to `CC(C)(C)OC(=O)CCCNc1nc(F)c(-c2nn(Cc3ccc(C#N)cc3)c(=O)c3ccccc23)cc1Cl` [IV-51], for which inhibition was half-maximal at 0.092 µM (IC50). Compared with the last compound, the IC50 is about 170-fold lower.

For `[2H]C([2H])(OC)c1ccc(-c2nn(Cc3ccc(Cl)cc3)c(=O)c3ccccc23)c(F)n1` [Compound I-35], the IC50 was determined as 0.3 µM.

The compound `N#Cc1ccc(Cn2nc(-c3ccc(NCCCO)nc3F)c3ccccc3c2=O)cc1` [IV-66] came in with a concentration for half-maximal inhibition (IC50) of 0.18 µM.

Turning to `CN(C)CCNc1ccc(-c2nn(Cc3ccc(Cl)cc3)c(=O)c3ccccc23)c(F)n1` [Compound I-21], 1.6 µM corresponded to half-maximal inhibition (IC50).

As to `N#Cc1ccc(Cn2nc(-c3cc(Cl)c(NCCC(=O)O)nc3F)c3ccccc3c2=O)cc1` [IV-63], the midpoint of inhibition, the IC50, lay at 0.262 µM.

For the compound `N#Cc1ccc(Cn2nc(-c3cc(Cl)cnc3F)c3ccccc3c2=O)c(Cl)c1` [Compound I-41], the IC50 came to 0.108 µM.

The compound `N#Cc1ccc(Cn2nc(-c3cc(Cl)cnc3F)c3ccccc3c2=O)c(F)c1` [Compound I-42] came in with a concentration for half-maximal inhibition (IC50) of 0.378 µM.

As to `CC(C)(C)OC(=O)CCNc1ccc(-c2nn(Cc3ccc(C#N)cc3)c(=O)c3ccccc23)c(F)n1` [IV-61], it took 0.465 µM to reach half-maximal inhibition (IC50).

In turn, `CCOC(=O)CCCNc1nc(F)c(-c2nn(Cc3ccc(C#N)cc3)c(=O)c3ccccc23)cc1Cl` [IV-36] returned a concentration for half-maximal inhibition (IC50) of 0.482 µM.

As to `COCCNc1ccc(-c2nn(Cc3ccc(C#N)cc3)c(=O)c3ccccc23)c(F)n1` [IV-26], the IC50 was 0.43 µM.

As to `CS(=O)(=O)CCNc1nc(F)c(-c2nn(Cc3ccc(C#N)cc3)c(=O)c3ccccc23)cc1Cl` [IV-75], inhibition was half-maximal at 0.0366 µM (IC50).

Take `Cc1ncccc1-c1nn(Cc2ccc(C#N)cc2)c(=O)c2ccccc12` [IV-3]: the IC50 is 5.5 µM.

`CC1(C)OCC(CNc2ccc(-c3nn(Cc4ccc(C#N)cc4)c(=O)c4ccccc34)c(F)n2)O1` (stereo not shown) [IV-78] registered an IC50 of 0.341 µM.

Take `CN(C)Cc1ccc(-c2nn(Cc3ccc(Cl)cc3)c(=O)c3ccccc23)c(F)n1` [Compound I-33]: half-maximal inhibition (IC50) was put at 1.3 µM.

`COCCOCCOCCNc1ccc(-c2nn(Cc3ccc(C#N)cc3)c(=O)c3ccccc23)c(F)n1` [IV-49] returned an IC50 of 0.166 µM. Compared with the last compound, the IC50 is about 7.8-fold lower.

`N#Cc1ccc(Cn2nc(-c3ccc(NC4CC4)nc3F)c3ccccc3c2=O)cc1` [IV-13] had an IC50 of 3.8 µM.

In turn, `O=c1c2ccccc2c(-c2ccc(N3CCC3)nc2F)nn1Cc1ccc(Cl)cc1` [Compound I-18] gave a 50% inhibitory concentration (IC50) of 1.2 µM.

`N#Cc1ccc(Cn2nc(-c3cc(Cl)c(NCCO)nc3F)c3ccccc3c2=O)cc1` [IV-77] yielded an IC50 of 0.0277 µM.

Regarding `CN(C)Cc1ccc(-c2nn(Cc3ccc(C#N)cc3)c(=O)c3ccccc23)c(F)n1` [IV-21], half-maximal inhibition (IC50) required 1.3 µM.
